Laboratory results reported in patent US11311522B1 (Cavion, Inc., priority 2018, dated 2022).
Several values for one entry are separate records, joined by “and”; a condition that tells them apart may be missing. Equal values may be shown once. Read-outs that look alike come from different tables or passages of the source.

Tests used:
[1] = Pharmacokinetics in rhesus monkeys; assay type: in vivo, rhesus monkey
Experimental: (§2) The validity and reproducibility of the assays were determined, and the precision and accuracy for calibration standards and quality control samples were examined. […] The analytes were stable in plasma under the storage and assay conditions. […] Assay performances were satisfactory and met acceptance criteria for system performance suitability, quantitation range, calibration linearity, assay accuracy and precision, and assay recovery.

Pharmacokinetics in dogs = assay type: in vivo, dog
Experimental: as §2

[2] = In vitro plasma protein binding, human; assay type: in vitro ADME
[3] = Phase 1 single-dose pharmacokinetics (PN001, PN002/Part I, PN003, PN005); assay type: in vivo, human; conditions: for Cmax / AUC(0-t): male, human, plasma, oral; for AUC(0-t): read-out: AUC0-24
in vivo = conditions: rat, po
[4] = for Day 90 Free Plasma AUC24 at NOAEL for Dog 90-Day Toxicology: 30 mg/kg/day; for Day 90 Free Plasma AUC24 at NOAEL for Rat 90-Day Toxicology: 300 mg/kg/day
[5] = system: CYP1A2, CYP3A4, CYP2C8, CYP2C9, CYP2C19, CYP2D6, CYP2B6; assay: CYP inhibition in human liver microsomes; assay type: in vitro ADME
[6] = system: T1, CYP1A2, CYP3A4, CYP2C8, CYP2C9, CYP2C19, CYP2D6; assay: CYP inhibition in human liver microsomes; assay type: in vitro ADME; conditions: human liver microsomes
T1 construct: IC50, CYP1A2, CYP3A4, CYP2C8, CYP2C9, CYP2C19, CYP2D6; other: human liver microsomes

[7] = In vitro plasma protein binding, dog; assay type: in vitro ADME
Source text: (§1) CX-8998 distributes readily to the brain in rats and to brain and cerebral spinal fluid (CSF) in dogs.

[8] = In vitro plasma protein binding, monkey; assay type: in vitro ADME
Source text: as §1

[9] = Simulated Css and total active moiety, 10 mg BID; design: species or system human; conditions: for Css, estimated mean / Steady-state AUC24, estimated mean: CX-8998 10 mg twice daily fasted
WAG/Rij rats = assay: WAG/Rij rat model of absence epilepsy; assay type: in vivo
Source text: Other T-type antagonists from structurally diverse series have shown similar efficacy in this model (Broicher, 2007; Blumenfeld, 2008; Broicher, 2008; Shipe, 2008; Yang, 2008; Uebele, 2009; Russo, 2010; Russo, 2011).
Data were scored with automated seizure analysis software, averaged, and normalized to enable treatment comparisons (FIG. 76)
Control animals received vehicle administrations. […] Source: Merck TTA Package Description (FIG. 79).

[10] = 4-week oral toxicology in Beagle dogs
[11] = Crossover bioavailability study IR vs MR1 vs MR2 capsules: PK; design: AUC72hr: unit not given beside the values; conditions: for AUC728, Mean / AUC728: single 8 mg dose, fasted; for AUC728, Mean: N=15; for AUC728: individual subjects; for AUC72hr: plasma
[12] = Monkey, IV 2 mg/kg, mean (SD), 3 animals
[13] = simulated from CX-8998 10 mg BID
[14] = Beagle dog, 4-week toxicity, oral gavage

CC(C)c1ccc(CC(=O)N[C@H](C)c2ccc(OCC(F)(F)F)cn2)cc1 [CX-8998]
CL [1, 12]: 15.9 (2.5) mL/min/kg
t½ [1, 12]: 1.3 (0.3) hr
F ([1]; Monkey, oral 20 mg/kg vs IV 2 mg/kg, mean (SD)): 2.8 (10.) %
Plasma clearance ([1]; rhesus monkey, in vivo): 16 mL/min/kg
Vdss, mean ([1]; rhesus monkey, in vivo): 0.9 L/kg
half-life ([1]; rhesus monkey, in vivo): 1.3 h
t½ (Pharmacokinetics in dogs; Dog, IV […], mean (SD), 3 animals): 7.3 (3.1) hr
F (Pharmacokinetics in dogs; Dog, oral 0.5 mg/kg vs IV […], mean (SD)): 76 (47) %
Vdss, mean (Pharmacokinetics in dogs; dog, in vivo): 0.8 L/kg
half-life (Pharmacokinetics in dogs; dog, in vivo): 7.3 h
bioavailability (Pharmacokinetics in dogs; dog, plasma, po, 0.5 mg/kg, single dose): 76%
fraction unbound ([2]; human plasma, read-out: Human-free fraction): 0.004
fraction unbound ([2]; human plasma, read-out: In vitro plasma protein binding (converted)): ~0.004
fraction unbound ([2]; humans, read-out: free fraction): 0.004
Cmax ([3]; 1 mg, PN001/Part I, males 20-40 y, single 1 mg fed, read-out: Cmax): 56 nM
Cmax ([3]; 1 mg, PN001/Part I, males 20-40 y, single 1 mg, morning fasted, read-out: Cmax): 104 nM
Cmax ([3]; 1 mg, fasted, read-out: Cmax, mean): 104 nM
Cmax ([3]; 1 mg, fed (high-fat meal), read-out: Cmax, mean): 56 nM
Cmax ([3]; 2 mg, PN002/Part I, males 55-75 y, single 2 mg, morning fasted, read-out: Cmax): 198 nM
Cmax ([3]; 8 mg, PN002/Part I, males 55-75 y, single 8 mg, morning fasted, read-out: Cmax): 708 nM
Cmax ([3]; 8 mg, single 8 mg CX-8998, PN002/Part I middle-aged and elderly males, read-out: Cmax): 708 nM
AUC(0-t) ([3]; 12 mg, PN002 Part 2, 12 mg, 1 dose): 4.99 µM·h
Cmax ([3]; 12 mg, PN002 Part 2, 12 mg, 1 dose, read-out: Cmax): 798 nM
AUC(0-t) ([3]; 16 mg, PN001 Part 1, 16 mg, 1 dose): 8.52 µM·h
Cmax ([3]; 18 mg, PN001/Part II, males 22-39 y, single 18 mg, morning fasted, read-out: Cmax): 1180 nM
AUC(0-t) ([3]; 18 mg, PN001 Part 2, 18 mg, 1 dose): 9.93 µM·h
Cmax ([3]; 18 mg, PN001 Part 2, 18 mg, 1 dose, read-out: Cmax): 1180 nM
Cmax ([3]; 18 mg, PN002/Part I, males 55-75 y, single 18 mg, morning fasted, read-out: Cmax): 1330 nM
AUC(0-t) ([3]; 18 mg, PN002 Part 1, 18 mg, 1 dose): 9.44 µM·h
Cmax ([3]; 18 mg, PN002 Part 1, 18 mg, 1 dose, read-out: Cmax): 1330 nM
Cmax ([3]; 24 mg, PN001/Part I, males 20-40 y, single 24 mg evening, read-out: Cmax): 1370 nM
AUC(0-t) ([3]; Average of studies, dose 16, 1 dose): 8.22 µM·h
Cmax ([3]; Average of studies, dose 16, 1 dose, read-out: Cmax): 1060 nM
Mean Cmax higher than in younger male subjects ([3]; middle-aged and elderly female, 8 mg): 6%
Mean Cmax higher than in younger male subjects ([3]; middle-aged and elderly male, 8 mg): 28%
Reduction in Cmax with food ([3]; vs fasted state): 45%
half-life (in vivo; female, 5 mg/kg/day): 1.6 h
half-life (in vivo; female, 100 mg/kg/day): 9.25 h
half-life (in vivo; female, 300 mg/kg/day): 5.28 h
half-life (in vivo; male, 15 mg/kg/day): 2.87 h
Tmax (in vivo; male, 100 mg/kg/day): 2 h
half-life (in vivo; male, 100 mg/kg/day): 3.72 h
half-life (in vivo; male, 300 mg/kg/day): 5.68 h
Day 90 Free Margin for AUC24 at NOAEL for Dog 90-Day Toxicology ([4]; Female dogs vs human 10 mg BID): 19
Day 90 Free Margin for Cmax at NOAEL for Dog 90-Day Toxicology ([4]; Female dogs vs human 10 mg BID (fed)): 57
Day 90 Free Plasma AUC24 at NOAEL for Dog 90-Day Toxicology ([4]; Female dogs): 1089 nM · hr
Day 90 Free Margin for AUC24 at NOAEL for Rat 90-Day Toxicology ([4]; Female rats vs human 10 mg BID): 81
Day 90 Free Margin for Cmax at NOAEL for Rat 90-Day Toxicology ([4]; Female rats vs human 10 mg BID (fed)): 184
Day 90 Free Plasma AUC24 at NOAEL for Rat 90-Day Toxicology ([4]; Female rats): 4528 nM · hr
Day 90 Free Margin for AUC24 at NOAEL for Dog 90-Day Toxicology ([4]; Male dogs vs human 10 mg BID): 18
Day 90 Free Margin for Cmax at NOAEL for Dog 90-Day Toxicology ([4]; Male dogs vs human 10 mg BID (fed)): 51
Day 90 Free Plasma AUC24 at NOAEL for Dog 90-Day Toxicology ([4]; Male dogs): 1005 nM · hr
Day 90 Free Margin for AUC24 at NOAEL for Rat 90-Day Toxicology ([4]; Male rats vs human 10 mg BID): 37
Day 90 Free Margin for Cmax at NOAEL for Rat 90-Day Toxicology ([4]; Male rats vs human 10 mg BID (fed)): 78
Day 90 Free Plasma AUC24 at NOAEL for Rat 90-Day Toxicology ([4]; Male rats): 2088 nM · hr
NOAEL exposure vs intended free clinical exposures ([4]; beagle, dog): approximately 20 times
Exposure without effects on fertility or reproduction vs intended clinical free AUC ([4]; rat): > 100 times
NOAEL exposure vs intended free clinical exposures ([4]; rat): at least 39 times
Time-dependent inhibition of CYP3A4 or CYP2B6 [5]: insignificant
IC50 [6]: > 20 µM
fraction unbound ([7]; dog plasma, read-out: In vitro plasma protein binding (converted)): ~0.003
fraction unbound ([7]; dogs, read-out: free fraction): 0.003
fraction unbound ([7]; read-out: Free fraction in dog plasma): 0.003
fraction unbound [8]: ~0.012
Css, estimated mean ([9]; middle-aged and elderly men): 874 nM
Steady-state AUC24, estimated mean ([9]; middle-aged and elderly men): 20.976 µM·h
Css, estimated mean ([9]; middle-aged and elderly women): 981 nM
Steady-state AUC24, estimated mean ([9]; middle-aged and elderly women): 23.544 µM·h
Css, estimated mean ([9]; young men): 583 nM
Steady-state AUC24, estimated mean ([9]; young men): 13.992 µM·h
Cu, ss_adj ([9]; adjusted for fu and potency, 10 mg BID): 2.3 nM
Cp, ss [9, 13]: 583 nM
Cu, ss [9, 13]: 2.3 nM
Reduction in cumulative time spent in seizure (WAG/Rij rats; 1 mg/kg, 4 hours after dosing): 55%
Suppression of seizure frequency (WAG/Rij rats; 10 mg/kg): up to 50%
Percent of inhibition (WAG/Rij rats; 10 mg/kg oral): 77%
Suppression of accumulated time in seizure (WAG/Rij rats; 10 mg/kg, 4 hours after dosing): 77%
Suppression of accumulated time in seizure (WAG/Rij rats; 10 mg/kg, 15 hours after dosing): 54%
NOEL [10, 14]: NOEL. 20 mg/kg/day. Dose-limiting
dose at which dose-limiting toxicity (mortality, physical signs) was observed [10, 14]: observed at 800 mg/kg/day
NOEL ([10]; dog, in vivo): 20 mg/kg/day
Safety margin (AUC24) at the NOEL over expected clinical exposure ([10]; dog, in vivo): approximately 30 fold
AUC728, Mean ([11]; IR Formulation): 7435 nMh
AUC728 ([11]; IR Formulation): 9175 nMh and 4786 nMh and 6911 nMh and 7288 nMh and 4596 nMh and 7940 nMh and 13892 nMh and 7217 nMh and 7305 nMh and 9382 nMh and 5463 nMh and 6845 nMh and 5185 nMh and 8628 nMh and 6910 nMh
AUC728, Mean ([11]; MR1 Formulation): 7526 nMh
AUC728 ([11]; MR1 Formulation): 9494 nMh and 4762 nMh and 7028 nMh and 7387 nMh and 4102 nMh and 8335 nMh and 13265 nMh and 8177 nMh and 6271 nMh and 9351 nMh and 5184 nMh and 7996 nMh and 5635 nMh and 8950 nMh and 7114 nMh
AUC728, Mean ([11]; MR2 Formulation): 7119 nMh
AUC728 ([11]; MR2 Formulation): 11133 nMh and 3862 nMh and 8064 nMh and 6813 nMh and 4833 nMh and 8180 nMh and 10810 nMh and 6034 nMh and 6730 nMh and 10165 nMh and 4975 nMh and 6136 nMh and 3085 nMh and 10051 nMh and 5947 nMh
AUC72hr ([11]; following a single 8 mg dose of MR1 CX-8998): 7530
AUC72hr ([11]; following a single 8 mg dose of MR2 CX-8998): 7125
